Laboratory results published in patent US20260193254A1, “2-OXOQUINAZOLINE CRYSTALLINE FORMS” (IDEAYA Biosciences, Inc., priority 2022, published 2026).
Values after ≈ are worked out from the molar mass of the structure shown.

Tests used:
[1] = Approximate solubility of solid state Form V at 25° C. and 50° C. (visual observation); type: physicochemical; conditions: thermodynamic from solid
Protocol: Maximum volume of each solvent added was 1 mL. Approximate solubility was determined by visual observation.

[2] = Crystallization at room temperature by slow evaporation; type: physicochemical; conditions: ambient condition
Text: Combined with approximate solubility experiment, solubility samples were filtered by 0.45 μm nylon filter. Obtained solutions were slow evaporated at ambient condition. Solid residues were examined for their polymorphic form.

For `Nc1nc(=O)n(-c2ccccc2Cl)c2nc(C(F)(F)F)ccc12` [solid state Form V, 4-Amino-1-(2-chlorophenyl)-7-(trifluoromethyl)pyrido[2,3-d]pyrimidin-2(1H)-one], which solubility at 10 min ([1]; organic solvent or mixture, SL2 Methanol, 25° C.) is on record?
Its solubility at 10 min is 15000 to 18000 µg/mL (≈ 44 to 52.8 mM).

What about the solubility at 10 min ([1]; organic solvent or mixture, SL2 Methanol, 50° C.) of the same compound?
The solubility at 10 min was 30000 to 35000 µg/mL (≈ 88.1 to 103 mM).

What about the solubility at 10 min ([1]; organic solvent or mixture, SL3 Ethanol, 25° C.) of the same compound?
The solubility at 10 min was 7000 to 8000 µg/mL (≈ 20.5 to 23.5 mM).

What about the solubility at 10 min ([1]; organic solvent or mixture, SL3 Ethanol, 50° C.) of the same compound?
The solubility at 10 min was 15000 to 17000 µg/mL (≈ 44 to 49.9 mM).

And the solubility at 10 min ([1]; organic solvent or mixture, SL4 2-Propanol, 25° C.)?
Its solubility at 10 min is under 5000 µg/mL.

And the solubility at 10 min ([1]; organic solvent or mixture, SL4 2-Propanol, 50° C.)?
Its solubility at 10 min is 5000 to 10000 µg/mL (≈ 14.7 to 29.4 mM).

What about the solubility at 10 min ([1]; organic solvent or mixture, SL5 Ethyl acetate, 25° C.) of the same compound?
Its solubility at 10 min is under 5000 µg/mL.

What about the solubility at 10 min ([1]; organic solvent or mixture, SL5 Ethyl acetate, 50° C.) of the same compound?
Its solubility at 10 min is under 5000 µg/mL.

And the solubility at 10 min ([1]; organic solvent or mixture, SL6 Isopropyl acetate, 25° C.)?
Its solubility at 10 min is under 5000 µg/mL.

And the solubility at 10 min ([1]; organic solvent or mixture, SL6 Isopropyl acetate, 50° C.)?
Its solubility at 10 min is under 5000 µg/mL.

And the solubility at 10 min ([1]; organic solvent or mixture, SL7 Acetone, 25° C.)?
Its solubility at 10 min is under 5000 µg/mL.

What about the solubility at 10 min ([1]; organic solvent or mixture, SL7 Acetone, 50° C.) of the same compound?
The solubility at 10 min was 5000 to 10000 µg/mL (≈ 14.7 to 29.4 mM).

What about the solubility at 10 min ([1]; organic solvent or mixture, SL8 Methyl ethyl ketone, 25° C.) of the same compound?
The solubility at 10 min was under 5000 µg/mL.

What about the solubility at 10 min ([1]; organic solvent or mixture, SL8 Methyl ethyl ketone, 50° C.) of the same compound?
Its solubility at 10 min is under 5000 µg/mL.

And the solubility at 10 min ([1]; organic solvent or mixture, SL9 t-Butyl methyl ether, 25° C.)?
Its solubility at 10 min is under 5000 µg/mL.

And the solubility at 10 min ([1]; organic solvent or mixture, SL9 t-Butyl methyl ether, 50° C.)?
The solubility at 10 min was under 5000 µg/mL.

And the solubility at 10 min ([1]; organic solvent or mixture, SL10 Tetrahydrofuran, 25° C.)?
Its solubility at 10 min is under 5000 µg/mL.

What about the solubility at 10 min ([1]; organic solvent or mixture, SL10 Tetrahydrofuran, 50° C.) of the same compound?
The solubility at 10 min was under 5000 µg/mL.

And the solubility at 10 min ([1]; organic solvent or mixture, SL11 2-methyl-THF, 25° C.)?
The solubility at 10 min was under 5000 µg/mL.

What about the solubility at 10 min ([1]; organic solvent or mixture, SL11 2-methyl-THF, 50° C.) of the same compound?
Its solubility at 10 min is under 5000 µg/mL.

What about the solubility at 10 min ([1]; organic solvent or mixture, SL12 Acetonitrile, 25° C.) of the same compound?
The solubility at 10 min was under 5000 µg/mL.

What about the solubility at 10 min ([1]; organic solvent or mixture, SL12 Acetonitrile, 50° C.) of the same compound?
The solubility at 10 min was under 5000 µg/mL.

And the solubility at 10 min ([1]; organic solvent or mixture, SL13 Heptane, 25° C.)?
Its solubility at 10 min is under 5000 µg/mL.

What about the solubility at 10 min ([1]; organic solvent or mixture, SL13 Heptane, 50° C.) of the same compound?
Its solubility at 10 min is under 5000 µg/mL.

And the solubility at 10 min ([1]; organic solvent or mixture, SL14 Dichloromethane, 25° C.)?
The solubility at 10 min was under 5000 µg/mL.

What about the solubility at 10 min ([1]; organic solvent or mixture, SL14 Dichloromethane, 50° C.) of the same compound?
The solubility at 10 min was under 5000 µg/mL.

What about the solubility at 10 min ([1]; organic solvent or mixture, SL15 Toluene, 25° C.) of the same compound?
Its solubility at 10 min is under 5000 µg/mL.

What about the solubility at 10 min ([1]; organic solvent or mixture, SL15 Toluene, 50° C.) of the same compound?
Its solubility at 10 min is under 5000 µg/mL.

And the solubility at 10 min ([1]; SL1 Water, 25° C.)?
Its solubility at 10 min is under 5000 µg/mL.

What about the solubility at 10 min ([1]; SL1 Water, 50° C.) of the same compound?
Its solubility at 10 min is under 5000 µg/mL.

What about the “Crystalline Form formed by slow evaporation” value (from here on “Crystalline Form formed”) ([2]; SE1 Methanol (15 mg/mL)) of the same compound?
Its value is “Solid state Form V”.

What about the “Crystalline Form formed” value ([2]; SE2 Ethanol (7 mg/mL)) of the same compound?
Its value is “Form F with low crystalline”.

And the “Crystalline Form formed” value ([2]; SE3 2-Propanol (5 mg/mL))?
The value was “Form J (IPA solvate)”.

And the “Crystalline Form formed” value ([2]; SE6 Acetone (5 mg/mL))?
The value was “Form G”.

And the “Crystalline Form formed” value ([2]; SE7 Methyl ethyl ketone (5 mg/mL))?
The value was “Form G”.

What about the “Crystalline Form formed” value ([2]; SE9 Tetrahydrofuran (5 mg/mL)) of the same compound?
The value was “Form K”.

What about the “Crystalline Form formed” value ([2]; SE12 Methanol/Ethyl acetate = 1/1 (v/v) (7 mg/mL)) of the same compound?
Its value is “Solid state Form V”.

What about the “Crystalline Form formed” value ([2]; SE13 Methanol/Acetonitrile = 1/1 (v/v) (11 mg/mL)) of the same compound?
The value was “Solid state Form V”.
